Assays:
[1] = in vivo; cited from earlier work
[2] = system: entorhinal cortex (EC) slices; assay: Low Mg2+ (Mg2+-free) in vitro model of epilepsy: frequency of epileptiform events; format: cell-based, Wistar rats; details: 10 μM non-liposomal, 15 min wash-in; n=4 slices
Text: In the ‘low Mg^2+’ in vitro model of epilepsy the susceptibility of the entorhinal cortex (EC) to seizure activity is exploited by acutely bathing EC slices in Mg^2+-free artificial cerebrospinal fluid (ACSF). The removal of Mg^2+ from the extracellular environment consequently removes the normal Mg^2+ block on the N-Methyl-D-aspartic acid (NMDA) receptor. […]
Recordings from the tissue chamber were made using Ag/AgCl pellet electrodes (Harvard Apparatus, UK). The signal was collected on a chart recorder (Semat, UK) or digitally recorded (Neurolog, UK). […] Digitally recorded signals were amplified (×100 gain) and high-pass filtered (8.9 Hz cut-off). […] Drugs were applied via the perfusate (Mg^2+-free ACSF) and the frequency of epileptiform events (SLEs or LRDs) were measured before and during drug application. […]
To determine the effect of control drug solutions on the frequency of epileptiform activity, the frequency of events 30 min (in most cases) prior to drug application (pre-drug) was compared with the frequency of events during the wash-in period (15 min). For the drug delivered in liposomes, in addition to the frequency of pre-drug events and during wash-in, the frequency of events during 30 min immediately after the application of the ultrasound trigger was also quantified. […]

Structure (SMILES): N[C@@H](Cc1ccc(O)c(O)c1)C(=O)O [levodopa]
- fraction crossing the blood-brain barrier [1]: 5-10%

Structure (SMILES): NCc1cc(O)no1 [muscimol, 5-(aminomethyl)-isoxazol-3-ol]
- reduction in epileptiform activity [2]: 85%±14
